In one test the target is T1, MALT1 (Homo sapiens, UniProt Q9UDY8).
T1 construct: Avi-tagged FL MALT-1 (Pharmaron, stored at −70° C.); Avi tag
T1 sequence (Q9UDY8 1-824): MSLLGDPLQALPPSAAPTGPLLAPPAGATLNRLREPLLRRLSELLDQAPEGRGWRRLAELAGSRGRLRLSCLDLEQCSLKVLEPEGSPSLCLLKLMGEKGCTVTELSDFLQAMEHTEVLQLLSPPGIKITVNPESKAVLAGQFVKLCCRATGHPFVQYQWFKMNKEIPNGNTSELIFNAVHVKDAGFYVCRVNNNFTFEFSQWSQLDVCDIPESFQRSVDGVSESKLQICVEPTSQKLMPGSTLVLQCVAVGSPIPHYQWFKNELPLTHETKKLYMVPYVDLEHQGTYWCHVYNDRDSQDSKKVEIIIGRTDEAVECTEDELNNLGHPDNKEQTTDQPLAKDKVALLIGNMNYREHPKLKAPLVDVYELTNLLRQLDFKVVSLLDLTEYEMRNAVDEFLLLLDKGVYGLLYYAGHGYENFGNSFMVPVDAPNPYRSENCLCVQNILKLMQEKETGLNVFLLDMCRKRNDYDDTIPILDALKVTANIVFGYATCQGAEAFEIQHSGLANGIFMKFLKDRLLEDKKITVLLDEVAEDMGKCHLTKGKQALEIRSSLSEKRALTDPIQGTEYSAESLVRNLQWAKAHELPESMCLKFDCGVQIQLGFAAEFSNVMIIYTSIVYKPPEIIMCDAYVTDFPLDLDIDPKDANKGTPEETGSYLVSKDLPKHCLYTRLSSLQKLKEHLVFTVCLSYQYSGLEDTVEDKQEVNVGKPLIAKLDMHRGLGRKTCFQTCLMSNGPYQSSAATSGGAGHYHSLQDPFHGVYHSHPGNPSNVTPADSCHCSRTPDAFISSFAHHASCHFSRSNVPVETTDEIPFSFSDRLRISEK
The test is described as follows: MALT-1 Fluorogenic Peptide Cleavage Assay (MALT1 inhibition assay). It counts as biochemical. Conditions: Avi-tagged FL MALT-1, Ac-LRSR-AMC peptide substrate, 30 min pre-incubation, 90 min reaction. The gist of the method:
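Avi-tagged full-length MALT1 pre-incubated 30 min with compound (2% DMSO final), then cleavage of Ac-LRSR-AMC followed over 90 min at room temperature. AMC fluorescence read at 342/441 nm; % inhibition fitted to sigmoidal curves for IC50.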

Another test has as its system NF-kB. The test is described as follows: NF-kB reporter assay in Jurkat cells stimulated with aCD3/aCD28/PMA. It counts as cell-based. Conditions: Homo sapiens, Jurkat, Jurkat cells, 1 hr compound incubation, aCD3/aCD28/PMA stimulation 4 hr, One-Glo readout; read-out: NF-kB Reporter Assay IC50. Put shortly: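 Jurkat cells (25,000/well, serum-free RPMI 1640) preincubated 1 hr at 37° C with serially diluted compound, then stimulated with aCD3/aCD28/PMA (final 5 μg/mL, 5 μg/mL, 0.03 μg/mL) for 4 hr. Reporter luminescence read with One-Glo; IC50 derived.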
For orientation: A reporter such as luciferase makes a cellular process visible.

As usually defined, the IC50 is the concentration that inhibits the measured activity by half.

For `Cc1cnn(C)c1-c1ccc(S(=O)(=O)Nc2cccc3cnn(C)c23)cn1` [Example I-124, 6-(1,4-Dimethyl-1H-Pyrazol-5-yl)-N-(1-Methyl-1H-Indazol-7-yl)Pyridine-3-Sulfonamide], the 50% inhibitory concentration (IC50) on MALT1 and in the test on NF-kB was more than 2500 nM throughout.
Turning to `COc1nn(C)cc1-c1ccc(S(=O)(=O)Nc2cccc3cnn(C)c23)cn1` [Example I-125, 6-(3-Methoxy-1-Methyl-1H-Pyrazol-4-yl)-N-(1-Methyl-1H-Indazol-7-yl)Pyridine-3-Sulfonamide], the IC50 is more than 2500 nM on MALT1 and less than 400 nM in the test on NF-kB.
The corresponding values for `CCc1ccc2cnn(C)c2c1NS(=O)(=O)c1ccc(-n2nccc2C(F)(F)F)nc1` [Example I-126, N-(6-ethyl-1-methyl-1H-indazol-7-yl)-6-(5-(trifluoromethyl)-1H-pyrazol-1-yl)pyridine-3-sulfonamide] are less than 400 nM and less than 400 nM.
With `COc1ccc2cnn(C)c2c1NS(=O)(=O)c1ccc(-n2ccc(C(F)F)n2)nc1` [Example I-127, 6-(3-(Difluoromethyl)-1H-Pyrazol-1-yl)-N-(6-Methoxy-1-Methyl-1H-Indazol-7-yl)Pyridine-3-Sulfonamide], the 50% inhibitory concentration (IC50) against MALT1 and in the test on NF-kB was less than 400 nM throughout.
Regarding `COc1ccc2nnn(C)c2c1NS(=O)(=O)c1ccc(-n2ccc(C(F)(F)F)n2)nc1` [Example I-128, N-(6-methoxy-1-methyl-1H-benzo[d][1,2,3]triazol-7-yl)-6-(3-(trifluoromethyl)-1H-pyrazol-1-yl)pyridine-3-sulfonamide], the half-maximal inhibitory concentration (IC50) lay in the range of 1000 to 2500 nM on MALT1 and 400 to 1000 nM in the test on NF-kB.
Regarding `COc1ccc2cnn(C)c2c1NS(=O)(=O)c1ccc(-n2cc(C)c(C)n2)nc1` [Example I-129, 6-(3,4-dimethyl-1H-pyrazol-1-yl)-N-(6-methoxy-1-methyl-1H-indazol-7-yl)pyridine-3-sulfonamide], the concentration for half-maximal inhibition (IC50) on MALT1 and in the test on NF-kB was less than 400 nM each time.
As for `Cn1ncc2cccc(NS(=O)(=O)c3ccc(-c4cncc(C#N)c4)nc3)c21` [Example I-130, 5′-cyano-N-(1-methylindazol-7-yl)-[2,3′-bipyridine]-5-sulfonamide], the results for the IC50 against MALT1 and in the test with NF-kB were more than 2500 nM and 1000 to 2500 nM, respectively.
In the case of `Cc1cncc(-c2ccc(S(=O)(=O)Nc3cccc4cnn(C)c34)cn2)c1` [Example I-131, 5′-methyl-N-(1-methylindazol-7-yl)-[2,3′-bipyridine]-5-sulfonamide], the IC50 against MALT1 is more than 2500 nM; in the test with NF-kB, less than 400 nM.
The corresponding values for `Cc1cc(-c2ccc(S(=O)(=O)Nc3cccc4cnn(C)c34)cn2)ccn1` [Example I-132, 2′-methyl-N-(1-methylindazol-7-yl)-[2,4′-bipyridine]-5-sulfonamide] are more than 2500 nM and less than 400 nM.
Consider `Cn1ncc2cccc(NS(=O)(=O)c3ccc(-c4cncnc4)nc3)c21` [Example I-133, N-(1-methylindazol-7-yl)-6-(pyrimidin-5-yl)pyridine-3-sulfonamide], for which the concentration for half-maximal inhibition (IC50) on MALT1 and in the test with NF-kB was more than 2500 nM in each case.
As to `Cn1ncc2cccc(NS(=O)(=O)c3ccc(-c4cncc(F)c4)nc3)c21` [Example I-134, 5′-Fluoro-N-(1-Methyl-1H-Indazol-7-yl)-[2,3′-Bipyridine]-5-Sulfonamide], the IC50 at MALT1 was more than 2500 nM; with NF-kB it was less than 400 nM.
Regarding `Cc1ncc(-c2ccc(S(=O)(=O)Nc3cccc4cnn(C)c34)cn2)cn1` [Example I-135, N-(1-Methyl-1H-Indazol-7-yl)-6-(2-Methylpyrimidin-5-yl)Pyridine-3-Sulfonamide], the 50% inhibitory concentration (IC50) is more than 2500 nM against MALT1 and 400 to 1000 nM with NF-kB.
`Cn1ncc2cccc(NS(=O)(=O)c3ccc(-c4ccc(O)nc4)nc3)c21` [Example I-136, 6′-Hydroxy-N-(1-Methyl-1H-Indazol-7-yl)-[2,3′-Bipyridine]-5-Sulfonamide]: the IC50 against MALT1 and in the test with NF-kB was more than 2500 nM each time.
For `Cn1ncc2cccc(NS(=O)(=O)c3ccc(-c4cncc(S(C)(=O)=O)c4)nc3)c21` [Example I-137, N-(1-Methyl-1H-Indazol-7-yl)-5′-(Methylsulfonyl)-[2,3′-Bipyridine]-5-Sulfonamide], the concentration for half-maximal inhibition (IC50) against MALT1 and in the test with NF-kB was more than 2500 nM in each case.
Consider `Cn1ncc2cccc(NS(=O)(=O)c3ccc(-c4ccn(C(F)F)n4)nc3)c21` [Example I-138, 6-(1-(Difluoromethyl)-1H-Pyrazol-3-yl)-N-(1-Methyl-1H-Indazol-7-yl)Pyridine-3-Sulfonamide], for which the results for the concentration for half-maximal inhibition (IC50) against MALT1 and in the test with NF-kB were more than 2500 nM and less than 400 nM, respectively.
On to `COc1ncccc1-c1ccc(S(=O)(=O)Nc2cccc3cnn(C)c23)cn1` [Example I-139, 2′-Methoxy-N-(1-Methyl-1H-Indazol-7-yl)-[2,3′-Bipyridine]-5-Sulfonamide], for which the IC50 against MALT1 was more than 2500 nM; in the test on NF-kB, less than 400 nM.
The like results for `COc1ccc2cnn(C)c2c1NS(=O)(=O)c1ccc(-n2nc(C)c(C)c2C)nc1` [Example I-140, N-(6-Methoxy-1-Methyl-1H-Indazol-7-yl)-6-(3,4,5-Trimethyl-1H-Pyrazol-1-yl)Pyridine-3-Sulfonamide] were, in that order, less than 400 nM and less than 400 nM.
Consider `COc1ccc2cnn(C)c2c1NS(=O)(=O)c1ccc(-n2nc(C)c(Cl)c2C)nc1` [Example I-141, 6-(4-Chloro-3,5-Dimethyl-1H-Pyrazol-1-yl)-N-(6-Methoxy-1-Methyl-1H-Indazol-7-yl)Pyridine-3-Sulfonamide], for which the 50% inhibitory concentration (IC50) at MALT1 and in the test with NF-kB was less than 400 nM in each case.
Consider `COc1ccc2cnn(C)c2c1NS(=O)(=O)c1ccc(-n2nc(C)cc2C)nc1` [Example I-142, 6-(3,5-Dimethyl-1H-Pyrazol-1-yl)-N-(6-Methoxy-1-Methyl-1H-Indazol-7-yl)Pyridine-3-Sulfonamide], for which the half-inhibitory concentration (IC50) against MALT1 and with NF-kB was less than 400 nM throughout.
With `Cn1ccc2cccc(NS(=O)(=O)c3ccc(-c4cc(C(F)(F)F)n[nH]4)nc3)c21` [Example I-143, N-(1-Methyl-1H-Indol-7-yl)-6-(5-(Trifluoromethyl)-1H-Pyrazol-3-yl)Pyridine-3-Sulfonamide], the IC50 against MALT1 and in the test on NF-kB was less than 400 nM each time.
`COc1ccc2cnn(C)c2c1NS(=O)(=O)c1ccc(-n2nnc(C)n2)nc1` [Example I-144, N-(6-Methoxy-1-Methyl-1H-Indazol-7-yl)-6-(5-Methyl-2H-Tetrazol-2-yl)Pyridine-3-Sulfonamide]: the IC50 against MALT1 and in the test with NF-kB was more than 2500 nM in each case.
Turning to `Cn1ncc2cccc(NS(=O)(=O)c3ccc(-c4cnn(CCO)c4)nc3)c21` [Example I-146, 6-(1-(2-Hydroxyethyl)-1H-Pyrazol-4-yl)-N-(1-Methyl-1H-Indazol-7-yl)Pyridine-3-Sulfonamide], the IC50 at MALT1 and in the test with NF-kB was more than 2500 nM each time.
Consider `COc1ccc2cnn(C)c2c1NS(=O)(=O)c1ccc(-n2nccc2C2CC2)nc1` [Example I-147, 6-(5-Cyclopropyl-1H-Pyrazol-1-yl)-N-(6-Methoxy-1-Methyl-1H-Indazol-7-yl)Pyridine-3-Sulfonamide], for which the IC50 against MALT1 was more than 2500 nM; in the test on NF-kB it was 400 to 1000 nM.
For the compound `COc1ccc2cnn(C)c2c1NS(=O)(=O)c1ccc(-n2ncc(C)c2C)nc1` [Example I-148, 6-(4,5-Dimethyl-1H-Pyrazol-1-yl)-N-(6-Methoxy-1-Methyl-1H-Indazol-7-yl)Pyridine-3-Sulfonamide], the IC50 on MALT1 and in the test with NF-kB was less than 400 nM throughout.
